For 126 compounds, Potency and outcome results are on record in PubChem BioAssay AID1188 (EPA DSSTox, 2008).

Active and inactive are the calls of the source.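 How the source made its calls: active means a concentration killing half the fathead minnows in the acute test was determined; inconclusive means some fish died but not half at top dose; inactive means no fish died even at top dose.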

For this data set, the system named is Fathead minnow (Pimephales promelas) acute toxicity, lethality. Kind of data set: DSSTox (EPAFHM) EPA Fathead Minnow Acute Toxicity. The source says:
The EPA Fathead Minnow Acute Toxicity database was generated by the U.S. EPA Mid-Continental Ecology Division (MED) for the purpose of developing an expert system to predict acute toxicity from chemical structure based on mode of action considerations. […] A second valuable aspect of this database, from a QSAR modeling perspective, is the inclusion of general mode-of-action (MOA) classifications of acute toxicity response for individual chemicals derived from study results. MOA assignments are biologically based classifications, allowing definition of chemical similarity based upon biological activity instead of organic chemistry functional class as most commonly employed in QSAR study. MOA classifications should strengthen the scientific basis for construction of individual QSARs. However, it is cautioned that the broad MOA categorizations should not be construed to represent a single molecular mechanism; for example, CNS seizure agents and respiratory inhibitors are known to act through a variety of receptors. The EPA Fathead Minnow database and results have been used by EPA MED to build components of the ASTER prediction system, which incorporates MOA-based QSARs for the prediction of aquatic toxicity of environmental and industrial chemicals. Briefly, MOA classifications for individual chemicals, derived from experiments and provided in the EPA Fathead Minnow database, were used to derive substructural rules for assigning a new chemical to an MOA category based solely on chemical structure. Once a new chemical is assigned to an MOA category on this basis, the logP-based QSAR for that MOA category is applied.
The DSSTox EPAFHM database (available from the DSSTox Source URL) includes information pertaining to organic chemical class assignments (ChemClass_FHM), acute toxicity in fathead minnow (LC50_mg), dose-response assessments (LC50_Ratio, ExcessToxicityIndex), behavioral assessments (FishBehaviorTest), joint toxicity MOA evaluations of mixtures (MOA_MixtureTest), and additional MOA evaluation of fish acute toxicity syndrome (FishAcuteToxSyndrome) in rainbow trout. All of these indicators, to the extent available, were considered in the determination of MOA and, additionally, were used to determine a level of confidence in the MOA assignment for each chemical (MOA_Confidence). […] Activity Score is mapping of LOG10 (1/LC50_mmol) activity values spanning activity range [MIN, MAX] onto Integer 1-100 Activity range, where 100 is highest potency and 1 is lowest. If Activity Outcome is "active": Activity Score = 100 * INTEGER[(log10(1/ LC50_mmol) - MIN)/([…])].
Consider `O=[N+]([O-])c1cc([N+](=O)[O-])c2ccccc2c1O`, for which the Potency was 14.5 µM. The same measure, in the same setting: the figure for `O=Cc1cc(Cl)ccc1O` is 4.92 µM; for `CCCC(C)C1(CC)C(=O)N=C(O)NC1=O` (stereo unspecified) it is 199 µM. Still for that read-out and setting: the figure for `CC(C)CC=O` is 37.7 µM. Still for that read-out and setting: as for `Cc1cccc(Cl)n1`, the figure is 1820 µM; as for `CCCSSCCC`, 17 µM; as for `O=Cc1ccccc1F`, 10.9 µM. As for `CCOC(=O)CC(=O)OCC`, the Potency is 91.8 µM. On the same count and under the same terms, as for `C1OCOCO1`, the figure is 66100 µM; as for `ClCCCl`, 1370 µM. On the same count and under the same terms, the figure for `O=P(c1ccccc1)(c1ccccc1)c1ccccc1` is 193 µM; for `Cc1cc(O)ccc1Cl` it is 38.4 µM; for `CCCBr` it is 547 µM. Still for that read-out and setting: as for `O=C1NS(=O)(=O)c2ccccc21`, the figure is 82000 µM; as for `CCC[CH2][Sn]([CH2]CCC)([CH2]CCC)[CH2]CCC`, 0.13 µM. As to `ClC(Cl)=C(Cl)c1c(Cl)c(Cl)c(Cl)c(Cl)c1Cl`, the outcome was “inactive; moa not determined either due to lack of toxicity at saturation or late test res”. Turning to `CCC(C)C(C)C=O` (stereo unspecified), the Potency is 140 µM. Same read-out and setting: the figure for `CN1CCNCC1` is 23000 µM; for `O=S(=O)([O-])c1ccc[n+](Cc2ccccc2)c1` it is 9670 µM; for `CC(C)(O)CCc1ccccc1` it is 404 µM.

For the compound `CC(=O)c1ccc(Cl)cc1Cl`, the Potency is 68.9 µM. With `CCCCCOCCCCC`, the Potency is 19.8 µM. On the same count and under the same terms, the figure for `BrC(Br)c1ccccc1C(Br)Br` is 1.04 µM; for `ClCC(Cl)CCl` it is 391 µM. Same read-out and setting: the figure for `CCNCCO` is 16600 µM; for `CCCCCC(=O)O` it is 2760 µM; for `CC(C)=CC=C(C)C` it is 34.3 µM. `CCN(CC)C(=O)c1cccc(C)c1`: the Potency is 575 µM. Same read-out and setting: as for `NC(=O)c1ccccc1`, the figure is 5460 µM. The same measure, in the same setting: as for `Clc1ccccc1`, the figure is 150 µM. On to `CCOC(=O)N(C(=O)OCC)C(=O)OCC`, for which the Potency is 57 µM.

As to `ClC(Cl)C(Cl)(Cl)Cl`, the Potency was 37.2 µM. The same measure, in the same setting: the figure for `O=Cc1cccc(Oc2ccc(Cl)c(Cl)c2)c1` is 1.12 µM; for `ClC=C(Cl)Cl` it is 336 µM; for `CCc1ccccn1` it is 3860 µM. Take `CCCCCCCCCCO`: the Potency was 15.2 µM. Still for that read-out and setting: the figure for `CC(O)CC(C)(C)O` (stereo unspecified) is 90500 µM; for `O=P(Oc1ccccc1)(Oc1ccccc1)Oc1ccccc1` it is 2.66 µM. Still for that read-out and setting: the figure for `CCOP(=S)(OCC)SCSC(C)(C)C` is 0.0461 µM; for `CN(C)c1ccccc1` it is 529 µM; for `C=CCC(O)C=C` (stereo unspecified) it is 388 µM. Take `Nc1c(F)c(F)c(F)c(F)c1F`: the Potency is 203 µM. The same measure, in the same setting: as for `C=CCc1ccccc1O`, the figure is 112 µM. As to `OCCCc1cccnc1`, the Potency is 1090 µM.

In the case of `CCCCCCCCCC(C)=O`, the Potency was 8.81 µM.

As to `ClCCCCl`, the Potency was 982 µM. The same measure, in the same setting: as for `CN(C)C(=O)Nc1ccc(Cl)c(Cl)c1`, the figure is 60.9 µM. On the same count and under the same terms, as for `CCCCO`, the figure is 23300 µM; as for `CCCCOC(=O)c1ccc(C(=O)OCCCC)cc1`, 2.12 µM.

Take `Nc1ccc(F)c(C(F)(F)F)c1`: the Potency was 168 µM.

Consider `CCCCN(C=O)CCCC`, for which the Potency is 568 µM. For `CC(=O)C(C)(C)C`, the Potency was 869 µM. Consider `CCCCCCCCC(C)=O`, for which the Potency is 30.9 µM. Still for that read-out and setting: the figure for `NCCN1CCNCC1` is 17000 µM; for `Cc1ccc(C)c(O)c1C` it is 60.2 µM; for `CN(C)N` it is 131 µM. Take `Brc1ccccc1Br`: the Potency is 17.2 µM. Still for that read-out and setting: as for `O=Cc1cc(O)ccc1[N+](=O)[O-]`, the figure is 251 µM; as for `CCCCCCCCBr`, 4.34 µM. Turning to `CCOc1ccc(N)c([N+](=O)[O-])c1`, the Potency is 143 µM. Still for that read-out and setting: the figure for `OCC#CCO` is 623 µM. Take `COC(=O)c1cc(Cl)ccc1Cl`: the Potency is 68.3 µM.

Take `COc1cc(C=O)ccc1O`: the Potency is 551 µM. Still for that read-out and setting: as for `O=Cc1ccccc1`, the figure is 93 µM; as for `CCC(C)C=O` (stereo unspecified), 116 µM. Still for that read-out and setting: the figure for `Cc1ccc(O)cc1` is 153 µM; for `CCOP(=S)(OCC)Oc1nc(Cl)c(Cl)cc1Cl` it is 0.907 µM; for `COc1ccc(OC)c(C(=O)CBr)c1` it is 2.55 µM. The same measure, in the same setting: as for `CC/C=C\CCO`, the figure is 3800 µM. Take `c1ccc(-c2cccc(-c3ccccc3)n2)cc1`: the Potency was 0.908 µM.

On to `CCCCCC(C)=O`, for which the Potency was 1150 µM. Still for that read-out and setting: as for `CC12CCC(CC1)C(C)(C)O2`, the figure is 661 µM; as for `CC(C)=C1C=C2CC[C@@H]3[C@](C)(CCC[C@@]3(C)C(=O)O)[C@H]2CC1`, 4.93 µM. Same read-out and setting: the figure for `CNc1ccc(F)cc1` is 307 µM. The same measure, in the same setting: as for `CCN(CC)c1ccc(C=O)cc1`, the figure is 135 µM. Consider `CCCC(C)C1(CC)C(=O)N=C(S)NC1=O` (stereo unspecified), for which the Potency was 99.1 µM. `ClC(Cl)C(Cl)Cl`: the Potency is 121 µM.

With `CCOC(=O)CCCCCCCCC(=O)OCC`, the Potency is 10.5 µM.

Consider `c1ccc(SSc2ccccc2)cc1`, for which the Potency was 0.504 µM. Still for that read-out and setting: as for `Cc1cc(C(C)(C)C)c(O)c(C(C)(C)C)c1`, the figure is 1.65 µM; as for `O=S(c1ccccc1)c1ccccc1`, 432 µM.

`CCO`: the Potency is 319000 µM. Same read-out and setting: the figure for `CCCCCCCCCCc1ccc(N)cc1` is 0.266 µM; for `C=C(C)[C@H]1Cc2c(ccc3c2O[C@@H]2COc4cc(OC)c(OC)cc4[C@@H]2C3=O)O1` it is 0.0132 µM; for `Fc1ccc(Oc2ccc(F)cc2)cc1` it is 5.48 µM. In the case of `CC1=CC(=O)c2ccccc2C1=O`, the Potency is 0.639 µM. Same read-out and setting: as for `O=C1C[C@@H]2OCC=C3CN4CC[C@]56c7ccccc7N1[C@H]5[C@H]2[C@H]3C[C@H]46`, the figure is 1.11 µM; as for `C1CN2CCN1CC2`, 15400 µM.

Regarding `Oc1ccccc1O`, the Potency was 83.7 µM. On the same count and under the same terms, the figure for `CCCCCc1ccccc1` is 11.5 µM. Still for that read-out and setting: the figure for `OCCOCCO` is 709000 µM; for `COc1ccc(C(C)=O)c(OC)c1OC` it is 947 µM.

For `C=CC(=O)OCC(C)O` (stereo unspecified), the Potency was 26 µM. On to `c1ccc(N(c2ccccc2)c2ccccc2)cc1`, for which the outcome was “inactive; moa not determined either due to lack of toxicity at saturation or late test res”. Take `c1ccc2ncccc2c1`: the Potency is 602 µM.

In the case of `C=CC(O)CCC` (stereo unspecified), the Potency is 304 µM. For the compound `CC/C=C/CCO`, the Potency was 2710 µM. Still for that read-out and setting: the figure for `Cc1c[nH]c2ccccc12` is 67.4 µM; for `C=C(C)C(=C)C` it is 84.1 µM.

Consider `Oc1ccc(Cl)cc1Cc1cc(Cl)ccc1O`, for which the Potency is 1.15 µM. On the same count and under the same terms, as for `O=C1C2CC3CC(C2)CC1C3`, the figure is 405 µM.

With `CCCCCCCCCCCCCO`, the outcome is “inactive; moa not determined either due to lack of toxicity at saturation or late test res”.

In the case of `Oc1ccc(Cl)cc1Cl`, the Potency is 47.5 µM. Take `CCOCC`: the Potency was 34500 µM. Same read-out and setting: the figure for `CC(Cl)CCl` (stereo unspecified) is 1120 µM; for `COc1cccc(C=O)c1O` it is 15.8 µM. The same measure, in the same setting: as for `Cc1ccc(N)cc1`, the figure is 1490 µM; as for `CCC(=O)CC`, 17900 µM; as for `ClCCl`, 3890 µM. Turning to `c1ccc(-c2nc(-c3ccccc3)c(-c3ccccc3)[nH]2)cc1`, the outcome is “inactive; moa not determined either due to lack of toxicity at saturation or late test res”. Take `c1ccoc1`: the Potency is 896 µM. Still for that read-out and setting: the figure for `CNC(=O)Oc1ccc(N(C)C)c(C)c1` is 9.36 µM. On to `CC(C)OC(C)C`, for which the Potency is 7690 µM. Same read-out and setting: as for `Nc1ccc([N+](=O)[O-])cc1`, the figure is 905 µM. On the same count and under the same terms, the figure for `O=[N+]([O-])c1ccc(Oc2ccccc2)cc1` is 12.3 µM; for `CCCSCCC` it is 184 µM.

On to `O=C(c1ccc(Br)cc1)c1cccnc1`, for which the Potency is 77.8 µM. Still for that read-out and setting: the figure for `O=C(O)c1cccc(C(=O)O)n1` is 1930 µM; for `CC(=O)Nc1ccc(O)cc1` it is 5390 µM; for `CC(C)C(C)N` (stereo unspecified) it is 3260 µM. Still for that read-out and setting: the figure for `CC(=O)c1cccc(N)c1` is 2830 µM; for `CCOP(=S)(Oc1ccc([N+](=O)[O-])cc1)c1ccccc1` (stereo unspecified) it is 0.243 µM; for `CCOC(=O)C(Cc1ccccc1)C(=O)OCC` it is 21.7 µM. Regarding `Nc1ccccc1Cl`, the Potency is 45 µM. On the same count and under the same terms, the figure for `CCC(C)O` (stereo unspecified) is 49500 µM; for `O=C(c1ccccc1)c1ccccc1` it is 80.7 µM.
